In PubChem BioAssay (NCI):
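Where inhibition never reached the appropriate level, the endpoint shown equals the highest concentration tested. Otherwise, values were interpolated linearly from a five-concentration, 48-hour dose response in 96-well plates. Definition used: TGI = concentration required for complete inhibition of growth.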

Tests used:
Test in all cases: NCI-60 cell line screen, 48 h
OVCAR-8 ovarian = tested on: OVCAR-8 ovarian
NCI-H23 lung = tested on: NCI-H23 lung
EKVX NSCLC = tested on: EKVX NSCLC
UO-31 renal = tested on: UO-31 renal
DU-145 prostate = tested on: DU-145 prostate
MALME-3M melanoma = tested on: MALME-3M melanoma
HS 578T breast = tested on: HS 578T breast
A498 renal = tested on: A498 renal
SNB-19 CNS = tested on: SNB-19 CNS
MCF7 breast = tested on: MCF7 breast
KM12 colon = tested on: KM12 colon
SW-620 colon = tested on: SW-620 colon
CAKI-1 renal = tested on: CAKI-1 renal
OVCAR-4 ovarian = tested on: OVCAR-4 ovarian
NCI-H522 lung = tested on: NCI-H522 lung
A549 NSCLC = tested on: A549 NSCLC
MOLT-4 leukemia = tested on: MOLT-4 leukemia
HL-60(TB) leukemia = tested on: HL-60(TB) leukemia
SF-295 CNS = tested on: SF-295 CNS
HCC-2998 colon = tested on: HCC-2998 colon
M14 melanoma = tested on: M14 melanoma
NCI/ADR-RES ovarian = tested on: NCI/ADR-RES ovarian
U251 CNS = tested on: U251 CNS
SF-539 CNS = tested on: SF-539 CNS
K-562 leukemia = tested on: K-562 leukemia
T-47D breast = tested on: T-47D breast
HOP-92 NSCLC = tested on: HOP-92 NSCLC
SK-MEL-2 melanoma = tested on: SK-MEL-2 melanoma
HCT-116 colon = tested on: HCT-116 colon
UACC-62 melanoma = tested on: UACC-62 melanoma
HT29 colon = tested on: HT29 colon
RXF 393 renal = tested on: RXF 393 renal
NCI-H460 lung = tested on: NCI-H460 lung
UACC-257 melanoma = tested on: UACC-257 melanoma
OVCAR-3 ovarian = tested on: OVCAR-3 ovarian
OVCAR-5 ovarian = tested on: OVCAR-5 ovarian
SN12C renal = tested on: SN12C renal
MDA-MB-231 breast = tested on: MDA-MB-231 breast
SR leukemia = tested on: SR leukemia
IGROV1 ovarian = tested on: IGROV1 ovarian
SK-MEL-5 melanoma = tested on: SK-MEL-5 melanoma
LOX IMVI melanoma = tested on: LOX IMVI melanoma
786-0 renal = tested on: 786-0 renal
SK-OV-3 ovarian = tested on: SK-OV-3 ovarian
COLO 205 colon = tested on: COLO 205 colon
PC-3 prostate = tested on: PC-3 prostate
ACHN renal = tested on: ACHN renal
BT-549 breast = tested on: BT-549 breast
MDA-MB-435 = tested on: MDA-MB-435
MDA-N = tested on: MDA-N
TK-10 renal = tested on: TK-10 renal
SNB-75 CNS = tested on: SNB-75 CNS
NCI-H226 lung = tested on: NCI-H226 lung
HCT-15 colon = tested on: HCT-15 colon
SK-MEL-28 melanoma = tested on: SK-MEL-28 melanoma
SF-268 CNS = tested on: SF-268 CNS

## COc1ccc(CC2c3cc(OC)c(OC)c(OC)c3CC[N+]2(C)C)cc1Oc1ccc(CC2c3cc4c(c(OC)c3CCN2C)OCO4)cc1 (stereo unspecified)
OVCAR-8 ovarian
  TGI: > 100 µM
NCI-H23 lung
  TGI: > 100 µM
EKVX NSCLC
  TGI: > 100 µM
UO-31 renal
  TGI: > 100 µM
DU-145 prostate
  TGI: > 100 µM
MALME-3M melanoma
  TGI: > 100 µM
HS 578T breast
  TGI: > 100 µM
A498 renal
  TGI: > 100 µM
SNB-19 CNS
  TGI: > 100 µM
MCF7 breast
  TGI: > 100 µM
KM12 colon
  TGI: > 100 µM
SW-620 colon
  TGI: > 100 µM
CAKI-1 renal
  TGI: > 100 µM
OVCAR-4 ovarian
  TGI: > 100 µM
NCI-H522 lung
  TGI: > 100 µM
A549 NSCLC
  TGI: > 100 µM
MOLT-4 leukemia
  TGI: > 100 µM
HL-60(TB) leukemia
  TGI: 89.7 µM
SF-295 CNS
  TGI: > 100 µM
HCC-2998 colon
  TGI: > 100 µM
M14 melanoma
  TGI: > 100 µM
NCI/ADR-RES ovarian
  TGI: > 100 µM
U251 CNS
  TGI: > 100 µM
SF-539 CNS
  TGI: > 100 µM
K-562 leukemia
  TGI: > 100 µM
T-47D breast
  TGI: > 100 µM
HOP-92 NSCLC
  TGI: > 100 µM
SK-MEL-2 melanoma
  TGI: > 100 µM
HCT-116 colon
  TGI: > 100 µM
UACC-62 melanoma
  TGI: > 100 µM
HT29 colon
  TGI: > 100 µM
RXF 393 renal
  TGI: > 100 µM
NCI-H460 lung
  TGI: > 100 µM
UACC-257 melanoma
  TGI: > 100 µM
OVCAR-3 ovarian
  TGI: > 100 µM
OVCAR-5 ovarian
  TGI: > 100 µM
SN12C renal
  TGI: > 100 µM
MDA-MB-231 breast
  TGI: > 100 µM
SR leukemia
  TGI: > 100 µM
IGROV1 ovarian
  TGI: > 100 µM
SK-MEL-5 melanoma
  TGI: > 100 µM
LOX IMVI melanoma
  TGI: > 100 µM
786-0 renal
  TGI: > 100 µM
SK-OV-3 ovarian
  TGI: > 100 µM
COLO 205 colon
  TGI: > 100 µM
PC-3 prostate
  TGI: > 100 µM
ACHN renal
  TGI: > 100 µM
BT-549 breast
  TGI: > 100 µM
MDA-MB-435
  TGI: > 100 µM
MDA-N
  TGI: > 100 µM
TK-10 renal
  TGI: > 100 µM
SNB-75 CNS
  TGI: > 100 µM
NCI-H226 lung
  TGI: > 100 µM
HCT-15 colon
  TGI: > 100 µM
SK-MEL-28 melanoma
  TGI: > 100 µM
SF-268 CNS
  TGI: > 100 µM
